From patent US20150038671A1, “Efficient Synthesis of CN2097 and RC7 and Their Analogs” (priority 2013, published 2015)
Starred links: 1 amine or outer side, 2 acyl side, 3 side chain; linkers in the order of their positions; H or OH if unused. Positions of bridges follow the written chain, without caps; N, C: chain ends. Non-standard residues stand in square brackets, D forms with d. Residues, ends and D or L forms follow the SMILES beside them. Chains are numbered I, II in the order given. Dmt = Cc1cc(O)cc(C)c1C[C@H](N)C(=O)O; X1 = O=C(CCN[*:2])[*:1]

Assay: Plasma stability (T1/2) in the blood plasma, HPLC analysis
Format: in vitro ADME
Settings: time by which the compound was degraded by enzyme to the 50% of original amount
Description: The stability of CN2097 and Szeto CN2097 derivatives in blood was determined as follows.
The detection limit of CN2097 was measured by HPLC analysis. Various concentrations of CN2097 were prepared in PBS and injected in HPLC and monitored at 214 nm. The HPLC analysis of CN2097 using 50 microliter injection and detecting up to 500 micromolar. The lowest level of detection was at 2 micromolar, corresponding to 0.1 nmole or 237.68 ng (FIG. 13).
The T1/2 is the time by which the compound was degraded by enzyme to the 50% of original amount.

half-life [min]	SMILES
~48.2	CC(C)[C@H](NC(=O)[C@@H]1CCC(=O)NCCC(=O)NCCCC[C@H](NC(=O)[C@H](CCCCN)NC(=O)[C@H](Cc2ccc(O)cc2)NC(=O)[C@H](CC(N)=O)NC(=O)[C@H](CCCCN)NC(=O)[C@@H](N)CSSC[C@H](N)C(=O)N[C@@H](CCCNC(=N)N)C(=O)N[C@@H](CCCNC(=N)N)C(=O)N[C@@H](CCCNC(=N)N)C(=O)N[C@@H](CCCNC(=N)N)C(=O)N[C@@H](CCCNC(=N)N)C(=O)N[C@@H](CCCNC(=N)N)C(=O)N[C@@H](CCCNC(=N)N)C(N)=O)C(=O)N[C@@H]([C@@H](C)O)C(=O)N1)C(=O)O [CN2097] (I: H-CKNYKKTEV-OH / II: H-CRRRRRRR-NH2; disulfide I:1-II:1; linker I:6-I:8 via X1)
~28	CC(C)[C@H](NC(=O)[C@@H]1CCC(=O)NCCC(=O)NCCCC[C@H](NC(=O)[C@H](CCCCN)NC(=O)[C@H](Cc2ccc(O)cc2)NC(=O)[C@H](CC(N)=O)NC(=O)[C@H](CCCCN)NC(=O)[C@@H](N)CS)C(=O)N[C@@H]([C@@H](C)O)C(=O)N1)C(=O)O [CN, Cys-Lys-Asn-Tyr-Lys-[Lys-Thr-Glu(β Ala)]-Val (NH2-CKNYK-[KTE(β-A)]V—OH)] (H-CKNYKKTEV-OH; linker 6-8 via X1)

SMILES	half-life [min]
Cc1cc(O)cc(C)c1C[C@H](N)C(=O)N[C@H](CCCNC(=N)N)C(=O)N[C@@H](Cc1ccccc1)C(=O)N[C@@H](CCCCN)C(=O)N[C@@H](CSSC[C@H](N)C(=O)N[C@@H](CCCCN)C(=O)N[C@@H](CC(N)=O)C(=O)N[C@@H](Cc1ccc(O)cc1)C(=O)N[C@@H](CCCCN)C(=O)N[C@H]1CCCCNC(=O)CCNC(=O)CC[C@@H](C(=O)N[C@H](C(=O)O)C(C)C)NC(=O)[C@H]([C@@H](C)O)NC1=O)C(N)=O [Sezto-CN] (I: H-CKNYKKTEV-OH / II: H-[Dmt][dR]FKC-NH2; disulfide I:1-II:5; linker I:6-I:8 via X1)	~43.2
